Data published in patent publication US20250230155A1 (Vanderbilt University, priority 2021, published 2025).

Target: T1, human mAChR M4 (Homo sapiens, UniProt P08173)
T1 construct: expressed in transfected cells
T1 sequence (P08173 1-479): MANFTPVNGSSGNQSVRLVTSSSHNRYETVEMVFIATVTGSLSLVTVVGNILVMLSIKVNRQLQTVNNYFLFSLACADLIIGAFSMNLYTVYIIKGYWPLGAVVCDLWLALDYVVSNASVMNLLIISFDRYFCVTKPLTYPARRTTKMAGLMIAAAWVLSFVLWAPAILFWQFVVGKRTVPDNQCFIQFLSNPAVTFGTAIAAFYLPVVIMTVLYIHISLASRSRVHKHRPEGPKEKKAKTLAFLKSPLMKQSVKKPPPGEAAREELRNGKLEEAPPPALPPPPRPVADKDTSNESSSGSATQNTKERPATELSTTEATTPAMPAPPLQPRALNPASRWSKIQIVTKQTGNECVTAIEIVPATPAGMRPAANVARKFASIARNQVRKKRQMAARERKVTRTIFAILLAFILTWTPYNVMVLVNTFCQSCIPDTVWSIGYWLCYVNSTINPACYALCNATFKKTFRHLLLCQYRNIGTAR
Assay: mAChR M4 cell-based functional assay (calcium mobilization, CHO-K1 hM4-Gqi5 cells)
Settings: for Emax at 30 µM: CHO-K1, % ACh maximum at 30 μM, human M4; for EC50: positive allosteric modulator activity, increase in the EC20 acetylcholine response, CHO-K1 hM4-Gqi5 cells, read-out: Human M4 EC50
In short: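 CHO-K1 cells stably expressing human M4 with chimeric Gqi5, loaded with Fluo-4 AM; compounds given as 11-point 1:3 curves and calcium flux read on FDSS at 1 Hz. Acetylcholine EC20 added at 144 s, EC80 at 230 s; agonist, PAM (EC20 potentiation) and antagonist (EC80 inhibition) EC50/Emax from four-parameter fits.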

Cc1cc(C(=O)NCc2ccnn2C)cnc1N1CCc2ncccc2C1 [compound 63, 6-(7,8-dihydro-5H-1,6-naphthyridin-6-yl)-5-methyl-N-[(2-methylpyrazol-3-yl)methyl]pyridine-3-carboxamide] gave an Emax at 30 µM of 68% and an EC50 of 2710 nM.

In the case of Cc1cc(C(=O)NC2CN(CC(F)(F)F)C2)nnc1N1CCc2ncc(N3CCCn4nccc43)cc2C1 [Example 520, 6-(3-(6,7-dihydropyrazolo[1,5-a]pyrimidin-4(5H)-yl)-7,8-dihydro-1,6-naphthyridin-6(5H)-yl)-5-methyl-N-(1-(2,2,2-trifluoroethyl)azetidin-3-yl)pyridazine-3-carboxamide], the Emax at 30 µM is reported as 104% and the EC50 is reported as 43 nM.

In the case of Cc1nc(Cl)c(C)c(N2CCc3ncc(Oc4ccc5c(cnn5C)c4)cc3C2)n1 [compound 208, 6-(6-chloro-2,5-dimethyl-pyrimidin-4-yl)-3-(1-methylindazol-5-yl)oxy-7,8-dihydro-5H-1,6-naphthyridine], the Emax at 30 µM is reported as 76% and the EC50 is reported as 304 nM.

Compound Cc1cc(C#N)cnc1N1CCc2ncc(Oc3ccccc3F)cc2C1 [compound 180, 6-[3-(2-fluorophenoxy)-7,8-dihydro-5H-1,6-naphthyridin-6-yl]-5-methyl-pyridine-3-carbonitrile] has an Emax at 30 µM of 94% and an EC50 of 96.9 nM.

Cc1c(C#N)nnc(N2CCc3ncc(-c4ccc(N5CC6(COC6)C5)nc4)cc3C2)c1C [Example 332, 6-(3-(6-(2-oxa-6-azaspiro[3.3]heptan-6-yl)pyridin-3-yl)-7,8-dihydro-1,6-naphthyridin-6(5H)-yl)-4,5-dimethylpyridazine-3-carbonitrile] showed an Emax at 30 µM of 83% and an EC50 of 824 nM.

Cc1cc(C(=O)N2CC(F)C2)nnc1N1CCc2ncc(-c3ccnn3C)cc2C1 [Example 563, (3-fluoroazetidin-1-yl)(5-methyl-6-(3-(1-methyl-1H-pyrazol-5-yl)-7,8-dihydro-1,6-naphthyridin-6(5H)-yl)pyridazin-3-yl)methanone] gave an Emax at 30 µM of 69% and an EC50 of 74 nM.

In the case of Cc1cc(C(=O)NCc2cccnc2)cnc1N1CCc2ncc(-c3cn(C)nc3C)cc2C1 [Example 457, 6-(3-(1,3-dimethyl-1H-pyrazol-4-yl)-7,8-dihydro-1,6-naphthyridin-6(5H)-yl)-5-methyl-N-(pyridin-3-ylmethyl)nicotinamide], the Emax at 30 µM is reported as 85% and the EC50 is reported as 576 nM.

Cc1cc(C(=O)N2CC(Cl)C2)nnc1N1CCc2ncc(N3CCO[C@H](C)C3)cc2C1 [Example 538, (R)-(3-chloroazetidin-1-yl)(5-methyl-6-(3-(2-methylmorpholino)-7,8-dihydro-1,6-naphthyridin-6(5H)-yl)pyridazin-3-yl)methanone] gave an Emax at 30 µM of 103% and an EC50 of 54 nM.

For Cc1cc(C(=O)N2CC3(C2)CC(F)(F)C3)nnc1N1CCc2ncc(N3CCCn4nccc43)cc2C1 [Example 555, (6,6-difluoro-2-azaspiro[3.3]heptan-2-yl)(6-(3-(6,7-dihydropyrazolo[1,5-a]pyrimidin-4(5H)-yl)-7,8-dihydro-1,6-naphthyridin-6(5H)-yl)-5-methylpyridazin-3-yl)methanone], the Emax at 30 µM was 83% and the EC50 was 48 nM.

Cc1cc(C(=O)N2CC(F)C2)nnc1N1CCc2ncc(N3CCO[C@H](C)C3)cc2C1 [Example 572, (R)-(3-fluoroazetidin-1-yl)(5-methyl-6-(3-(2-methylmorpholino)-7,8-dihydro-1,6-naphthyridin-6(5H)-yl)pyridazin-3-yl)methanone] was tested, and the Emax at 30 µM was 87% and the EC50 was 51 nM.

Cc1cc(C(=O)NCc2cnc(Cl)s2)cnc1N1CCc2ncc(-c3cn(C)nc3C)cc2C1 [Example 455, N-((2-chlorothiazol-5-yl)methyl)-6-(3-(1,3-dimethyl-1H-pyrazol-4-yl)-7,8-dihydro-1,6-naphthyridin-6(5H)-yl)-5-methylnicotinamide] gave an Emax at 30 µM of 93% and an EC50 of 581 nM.

Compound Cc1cc(C#N)cnc1N1CCc2ncc(-c3cnn(C4CCCC4)c3)cc2C1 [compound 98, 6-[3-(1-cyclopentylpyrazol-4-yl)-7,8-dihydro-5H-1,6-naphthyridin-6-yl]-5-methyl-pyridine-3-carbonitrile] has an Emax at 30 µM of 79% and an EC50 of 407 nM.

Compound Cc1cc(C(=O)NCc2ccccc2)cnc1N1CCc2ncccc2C1 [compound 70, N-benzyl-6-(7,8-dihydro-5H-1,6-naphthyridin-6-yl)-5-methyl-pyridine-3-carboxamide] has an Emax at 30 µM of 80% and an EC50 of 2930 nM.

Cc1cc(C(=O)N2CC(C)(F)C2)nnc1N1CCc2ncc(-n3cccn3)cc2C1 [Example 569, (6-(3-(1H-pyrazol-1-yl)-7,8-dihydro-1,6-naphthyridin-6(5H)-yl)-5-methylpyridazin-3-yl)(3-fluoro-3-methylazetidin-1-yl)methanone] was tested, and the Emax at 30 µM was 78% and the EC50 was 200 nM.

Cc1cc(C(=O)NCc2nccs2)cnc1N1CCc2ncc(-c3ccn(C)n3)cc2C1 [compound 171, 5-methyl-6-[3-(1-methylpyrazol-3-yl)-7,8-dihydro-5H-1,6-naphthyridin-6-yl]-N-(thiazol-2-ylmethyl)pyridine-3-carboxamide] showed an Emax at 30 µM of 87% and an EC50 of 265 nM.

Cc1cc(C(=O)NC(C)C)cnc1N1CCc2ncccc2C1 [compound 58, 6-(7,8-dihydro-5H-1,6-naphthyridin-6-yl)-N-isopropyl-5-methyl-pyridine-3-carboxamide] gave an Emax at 30 µM of 51% and an EC50 of at least 10000 nM.

For Cc1cc(Nc2cnc3c(c2)CN(c2nnc(C#N)c(C)c2C)CC3)c(F)cn1 [Example 614, 6-(3-((5-fluoro-2-methylpyridin-4-yl)amino)-7,8-dihydro-1,6-naphthyridin-6(5H)-yl)-4,5-dimethylpyridazine-3-carbonitrile], the Emax at 30 µM was 92% and the EC50 was 12 nM.

Work on Cc1ccc(-c2cnc3c(c2)CN(c2nnc(C#N)cc2C)CC3)cn1 [Example 392, 5-methyl-6-(3-(6-methylpyridin-3-yl)-7,8-dihydro-1,6-naphthyridin-6(5H)-yl)pyridazine-3-carbonitrile] yielded an Emax at 30 µM of 85% and an EC50 of 458 nM.

Compound Cc1cc(C(=O)N2CCCC2)nnc1N1CCc2ncc(C(F)(F)F)cc2C1 [Example 502, (5-methyl-6-(3-(trifluoromethyl)-7,8-dihydro-1,6-naphthyridin-6(5H)-yl)pyridazin-3-yl)(pyrrolidin-1-yl)methanone] has an Emax at 30 µM of 105% and an EC50 of 3530 nM.

In the case of Cc1cc(F)ncc1-c1cnc2c(c1)CN(c1ncc(C(=O)NCc3ccncc3)cc1C)CC2 [compound 177, 6-[3-(6-fluoro-4-methyl-3-pyridyl)-7,8-dihydro-5H-1,6-naphthyridin-6-yl]-5-methyl-N-(4-pyridylmethyl)pyridine-3-carboxamide], the Emax at 30 µM is reported as 91% and the EC50 is reported as 101 nM.

With [2H]C1([2H])N(c2cnc3c(c2)CN(c2ncc(C#N)cc2C)CC3)c2ccnn2C([2H])([2H])C1([2H])[2H] [Example 417, 6-(3-(6,7-dihydropyrazolo[1,5-a]pyrimidin-4(5H)-yl-5,5,6,6,7,7-d6)-7,8-dihydro-1,6-naphthyridin-6(5H)-yl)-5-methylnicotinonitrile] the Emax at 30 µM was 110% and the EC50 was 24 nM.

Cc1cc(C(=O)NCc2nccs2)cnc1N1CCc2ncc(-c3cnn(C)c3)cc2C1 [compound 173, 5-methyl-6-[3-(1-methylpyrazol-4-yl)-7,8-dihydro-5H-1,6-naphthyridin-6-yl]-N-(thiazol-2-ylmethyl)pyridine-3-carboxamide] showed an Emax at 30 µM of 95% and an EC50 of 77.3 nM.

In the case of Cc1cc(C(=O)N2CC(c3cccnc3)C2)nnc1N1CCc2ncc(N3CCCn4nccc43)cc2C1 [Example 526, (6-(3-(6,7-dihydropyrazolo[1,5-a]pyrimidin-4(5H)-yl)-7,8-dihydro-1,6-naphthyridin-6(5H)-yl)-5-methylpyridazin-3-yl)(3-(pyridin-3-yl)azetidin-1-yl)methanone], the Emax at 30 µM is reported as 116% and the EC50 is reported as 17 nM.

With Cc1cc(C#N)nnc1N1CCc2ncc(-c3cnn(C4CC4)c3)cc2C1 [Example 361, 6-(3-(1-cyclopropyl-1H-pyrazol-4-yl)-7,8-dihydro-1,6-naphthyridin-6(5H)-yl)-5-methylpyridazine-3-carbonitrile] the Emax at 30 µM was 115% and the EC50 was 786 nM.

In the case of COc1ccc(-c2cnc3c(c2)CN(c2ncc(C#N)cc2C)CC3)cn1 [compound 188, 6-[3-(6-methoxy-3-pyridyl)-7,8-dihydro-5H-1,6-naphthyridin-6-yl]-5-methyl-pyridine-3-carbonitrile], the Emax at 30 µM is reported as 106% and the EC50 is reported as 244 nM.

Cc1cc(C(=O)NCc2cncs2)nnc1N1CCc2ncc(-c3ccnn3C)cc2C1 [Example 516, 5-methyl-6-(3-(1-methyl-1H-pyrazol-5-yl)-7,8-dihydro-1,6-naphthyridin-6(5H)-yl)-N-(thiazol-5-ylmethyl)pyridazine-3-carboxamide] gave an Emax at 30 µM of 102% and an EC50 of 31 nM.

Cc1cc(C(=O)N2CCC2)nnc1N1CCc2ncc(N3CCCn4nccc43)cc2C1 [Example 545, azetidin-1-yl(6-(3-(6,7-dihydropyrazolo[1,5-a]pyrimidin-4(5H)-yl)-7,8-dihydro-1,6-naphthyridin-6(5H)-yl)-5-methylpyridazin-3-yl)methanone] showed an Emax at 30 µM of 125% and an EC50 of 46 nM.
